Test system: scFv1F4-QL34S
Test: PEPperCHIP peptide array, spot fluorescence after staining with DyLight680-labeled scFv
Assay type: binding
Description: ScFv1F4-QL34S labeling with DyLight680, peptide array synthesis and binding detection were performed by PEPperPRINT GmbH (PEPperCHIP® Platform Technology, Heidelberg, Germany). The permutation scans were carried out on the WT decapeptide ^6TAMFQDPQER^15 and on its variants. In a permutation scan, the effect on binding of replacing each of the ten peptide positions by all amino-acids except cysteine is analyzed, which requires the synthesis of 190 spot peptides per starting peptide (19 amino-acids at 10 positions). Two arrays were prepared, each containing the permutation analysis of the WT peptide and of 19 variants. All peptides were synthesized in duplicate (7,600 peptide spots per array). The peptide arrays were stained with the DyLight680-labeled scFv1F4-QL34S. The permutation scans of the WT peptide and of variant ^6TAMFQDPFER^15 are highlighted by white frames. The staining pattern of array A (S1 Fig) was published previously.
The objective was to investigate whether a starting amino-acid replacement modifies the effect on binding of amino-acid changes at neighboring positions. For example the effect of a deleterious starting change could be compensated by a replacement elsewhere. Residue interdependences may also be found in the case of non-deleterious starting replacements. They can be identified by comparing the permutation patterns of the WT and variant peptides. Arrays A [28] (S1 Fig) and B (Fig 1) each contained the permutation scans of the WT decapeptide ^6TAMFQDPQER^15 and of nineteen variants. Data recorded for the WT and 14 variant peptides of array A were described previously. The data presented here include all permutation scans in array B (WT and 19 variants), together with those of 5 variants in array A. One of these was performed twice in array A (peptide ^6TRMFQDVQER^15). Therefore the data include the permutations scans of the WT and of 23 variant decapeptides (Table 1), each of them being recorded at least in duplicate.
The repeatability of fluorescence measurements can be assessed because: i/ all peptides were synthesized in duplicate (Fig 1), ii/ the duplicated scan of peptide ^6TRMFQDVQER^15 was repeated in array A and iii/ several peptides occur repeatedly within a same or in different families. Array B contained 3,222 different peptides, with 105 peptides repeated between 6 and 46 times.
The signal intensity ranges differed in the two arrays: 6,800 and 18,100 for the scFv—WT decapeptide interaction in arrays A and B, respectively (Table 1). However normalization of the intensity values with respect to the mean value of the scFv1F4-WT peptide intensity in each panel, produced well-superimposed patterns (Fig 2). […] In addition, assuming that T6 is not part of the epitope, the variability observed for this position (standard deviation = 0.12) provides insight into the statistical significance of the normalized intensities.

[1] = array B, mean intensity relative to WT decapeptide of array B
[2] = array A, mean intensity relative to WT decapeptide of array A

| Sequence | % of WT signal [1] | other results |
| --- | --- | --- |
| TAMFQDPQER [WT decapeptide, residues 6-15 of HPV16-E6 oncoprotein, array-synthesized] | 100% |  |
| TAMFQDPQEA [starting variant of the WT decapeptide on array B] | 6% |  |
| TGSFQRASFM [starting variant of the WT decapeptide on array B] | 2% |  |
| TAMLADPQER [starting variant of the WT decapeptide on array B] | 3% |  |
| TAMFQDPFER [starting variant of the WT decapeptide on array B] | 68% |  |
| TAMFQRAQER [starting variant of the WT decapeptide on array B] | 3% |  |
| TAMFQDHQER [starting variant of the WT decapeptide on array B] | 4% |  |
| TAMFQDPQEQ [starting variant of the WT decapeptide on array B] | 24% |  |
| TGSFQDPQER [starting variant of the WT decapeptide on array B] | 66% | % of WT signal (array B, mean intensity relative to WT decapeptide of array B, listed as A7G-M8S): exceeded 10% |
| TAMFQDVQER [starting variant of the WT decapeptide on array B] | 16% |  |
| TAMLQDPQER [starting variant of the WT decapeptide on array B] | 3% |  |
| TAMFQTPQER [starting variant of the WT decapeptide on array B] | 3% |  |
| TAMDQDPQER [starting variant of the WT decapeptide on array B] | 3% |  |
| TRMFQDVQER [starting variant of the WT decapeptide on array A] |  | % of WT signal [2]: 5% |
| TAMFQDVFER [starting variant of the WT decapeptide on array A] |  | % of WT signal [2]: 14%; % of WT signal (array A, mean intensity relative to WT decapeptide of array A, listed as P12V-Q13F): exceeded 10% |
| TAMFQSPYER [starting variant of the WT decapeptide on array A] |  | % of WT signal [2]: 21%; % of WT signal (array A, mean intensity relative to WT decapeptide of array A, listed as D11S-Q13Y): exceeded 10% |
| TAMFQDVYER [starting variant of the WT decapeptide on array B] | 16% | % of WT signal (array B, mean intensity relative to WT decapeptide of array B, listed as P12V-Q13Y): exceeded 10% |
| TAMFQDPYER [starting variant of the WT decapeptide on array B] | 37% |  |
| TQMFQDPYER [starting variant of the WT decapeptide on array A] |  | % of WT signal [2]: 23%; % of WT signal (array A, mean intensity relative to WT decapeptide of array A, listed as A8Q-Q13Y): exceeded 10% |
| TAMFQDPSFM [starting variant of the WT decapeptide on array B] | 2% |  |
| TAMFADPQER [starting variant of the WT decapeptide on array B] | 2% |  |
| TAMFQDQQER [starting variant of the WT decapeptide on array B] | 5% |  |
| TAMFKDPQER [starting variant of the WT decapeptide on array B] | 2% |  |
| TAMFQDYQER [starting variant of the WT decapeptide on array B] | 7% | averaged fluorescence signal as % of that recorded with the WT peptide (array not stated at the place (arrays A and B)): < 10% |
